We go through three compounds from article PMC4504471, “Cilostazol Induces PGI2 Production via Activation of the Downstream Epac-1/Rap1 Signaling Cascade to Increase Intracellular Calcium by PLCε and to Activate p44/42 MAPK in Human Aortic Endothelial Cells” (PLoS ONE, 2015).

The target of assay [1] is T1, PDE3B (Homo sapiens, UniProt Q13370). As to the kind of experiment: SPR (Biacore S51), competition with Epac-1 peptides on immobilized PDE3B peptide. The format is binding. The conditions noted are these: read-out: % maximal inhibition.
In assay [2] the target is T1, PDE3B. As to the kind of experiment: SPR (Biacore S51), direct binding and competition with Epac-1 peptides; cAMP rise in HAECs lost on PDE3B siRNA. The conditions noted are these: read-out: % maximal inhibition. Background: Surface plasmon resonance follows binding to a sensor surface in real time, without labels.

T1 sequence (Q13370 1-25): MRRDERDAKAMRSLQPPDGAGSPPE
T1 sequence (O95398 whole entry partner): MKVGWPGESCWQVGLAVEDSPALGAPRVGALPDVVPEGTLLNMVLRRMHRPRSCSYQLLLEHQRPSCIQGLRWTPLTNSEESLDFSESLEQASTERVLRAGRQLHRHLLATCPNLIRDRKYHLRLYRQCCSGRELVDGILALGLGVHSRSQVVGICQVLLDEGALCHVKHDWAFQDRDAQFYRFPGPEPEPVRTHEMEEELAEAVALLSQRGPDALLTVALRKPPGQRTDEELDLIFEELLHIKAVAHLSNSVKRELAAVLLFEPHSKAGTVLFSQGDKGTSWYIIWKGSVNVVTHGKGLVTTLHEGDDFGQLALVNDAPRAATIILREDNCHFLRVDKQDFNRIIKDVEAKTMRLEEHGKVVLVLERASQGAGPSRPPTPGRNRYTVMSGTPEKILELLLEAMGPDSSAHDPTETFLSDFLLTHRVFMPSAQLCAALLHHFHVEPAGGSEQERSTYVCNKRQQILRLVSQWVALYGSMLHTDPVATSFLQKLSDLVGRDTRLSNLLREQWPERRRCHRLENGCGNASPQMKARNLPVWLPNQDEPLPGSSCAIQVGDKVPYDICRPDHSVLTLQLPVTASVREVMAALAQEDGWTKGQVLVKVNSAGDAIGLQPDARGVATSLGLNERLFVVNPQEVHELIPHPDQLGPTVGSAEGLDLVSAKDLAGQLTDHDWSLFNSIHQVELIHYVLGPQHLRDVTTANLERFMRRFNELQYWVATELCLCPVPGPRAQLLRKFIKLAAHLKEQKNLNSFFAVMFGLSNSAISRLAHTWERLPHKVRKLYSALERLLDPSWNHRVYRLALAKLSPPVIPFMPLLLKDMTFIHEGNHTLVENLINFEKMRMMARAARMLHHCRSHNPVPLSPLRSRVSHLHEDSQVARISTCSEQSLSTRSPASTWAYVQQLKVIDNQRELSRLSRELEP

Regarding `CN(C(=O)CCCOc1ccc2[nH]c(=O)ccc2c1)C1CCCCC1` [cilostamide], the Emax in assay [1] was 63%.
Take `O=C1CCc2cc(OCCCCc3nnnn3C3CCCCC3)ccc2N1` [cilostazol, 6-[4-(1-cyclohexyl-1H-tetrazol-5-yl)butyloxy]-3,4-dihydroquinolin-2-(1H)-one]: in assay [2], the Emax is 70%.
On to `Cc1[nH]c(=O)c(C#N)cc1-c1ccncc1` [milrinone], for which the Emax in assay [1] came out at 60%.
